The values that follow come from patent publication US10799536B2, “Method of treating multiple myeloma using natural killer cells expressing a chimeric antigen receptor for CD38” (Onkimmune Limited, priority 2016, dated 2020).

In one data set the target is T1, decoy receptor DcR1 (Homo sapiens, UniProt O14798).
T1 sequence (O14798 26-236): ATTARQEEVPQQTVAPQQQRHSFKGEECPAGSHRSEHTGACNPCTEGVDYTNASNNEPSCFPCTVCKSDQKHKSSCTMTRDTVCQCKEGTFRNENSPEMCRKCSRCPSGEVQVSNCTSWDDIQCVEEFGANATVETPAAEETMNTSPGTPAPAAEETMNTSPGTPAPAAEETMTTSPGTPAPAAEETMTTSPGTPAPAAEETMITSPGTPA
To be noted: surface plasmon resonance; WO 2009/077857; cited from earlier work. In general terms: Surface plasmon resonance follows binding to a sensor surface in real time, without labels.

The target in a further data set is DR4 (Homo sapiens, UniProt O00220). To be noted: surface plasmon resonance; WO 2009/077857; cited from earlier work.
In data set [1] the test system is DR5. To be noted: for DR5 expression, MFI: 24 hours, FIG. 20. The text has this: Bortezomib was bought from Millennium Pharmaceuticals.
The test system of another data set is CTLA4 gene. The data set is described as follows: gRNA cleavage in K562 cells, T7E1 mismatch detection assay. The data set is classed as cell-based, human. The note with it: FIG. 7. As for the experimental part:
(§1) Cells having inhibitory receptor function removed were prepared as follows. gRNA constructs were designed and prepared to target genes encoding the ‘classical’ inhibitory receptor LIR2 and the ‘checkpoint’ inhibitory receptor CTLA4 in the human genome of NK cells. CRISPR/Cas9 genome editing was then used to knock out the LIR2 and CTLA4 target genes.
(§2) Two gRNA candidates were selected for each target gene and their cleavage efficacies in K562 cells determined.
(§3) K562 cells were transfected with the prepared gRNA constructs (FIG. 5) and subsequently harvested for PCR amplification. The presence of GFP expression was used to report successful incorporation of the gRNA construct into the K562 cells. This confirmed expression of the Cas9 gene and therefore the ability to knock out expression of the LIR2 and CTLA4 genes. The cleavage activity of the gRNA constructs was determined using an in vitro mismatch detection assay. T7E1 endonuclease I recognizes and cleaves non-perfectly matched DNA, allowing the parental LIR2 and CTLA4 genes to be compared to the mutated genes following CRISPR/Cas9 transfection and non-homologous end joining (NHEJ).

In the next data set the test system is LIR2 gene. The data set is described as above. To be noted: FIG. 6. It is filed as cell-based, human. As for the experimental part:
as §1, §2, §3
The three bands corresponding to each mutation relate to the parental gene (601) and the two resulting strands following detection of a mismatch in the DNA sequence after transfection (602 and 603).

Data set [2] has as its system decoy receptors (DcR1 and DcR2). The note with it: D269H/E195R mutation, relative to wildtype TRAIL; cited from earlier work.
Data set [3] has as its target DR5 (Homo sapiens, UniProt O14763). The note with it: D269H/E195R mutation, relative to wildtype TRAIL; cited from earlier work.

Where two headings read alike, the source gives them in different places.

Usually Kd stands for a measure of binding affinity in units of concentration. Turning to “Wildtype TRAIL: TNF-related apoptosis-inducing ligand, wild-type protein”, the values for the dissociation constant Kd with decoy receptor DcR1 and with DR4 were > 20 nM and > 2 nM, respectively.

In the case of `CC(C)C[C@H](NC(=O)[C@H](Cc1ccccc1)NC(=O)c1cnccn1)B(O)O` [Bortezomib], the “DR5 expression, MFI” value in the data set with DR5 [1] (MM1.S cells, 2.5 nm of Bortezomib, untreated MFI 214) is listed as 662; in the data set on DR5 [1] (RPMI 8226 cells, 10 nm Bortezomib, untreated MFI 273), 679. Moreover, the “DR5 expression at high doses” value with DR5 [1] (high doses of Bortezomib) was “could not be upregulated”.

On to “g15 gRNA: gRNA targeting hCTLA4, CCTTGTGCCGCTGAAATCCAAGG (SEQ ID NO: 27) (listed as DNA, chemistry not fully specified; listed as Homo sapiens)”, for which the “success rate of transfection (CTLA4 knockout)” value with CTLA4 gene is 26%.

For the molecule “g18 gRNA: gRNA targeting hLIR2, CGAATCGCAGGTGGTCGCACAGG (SEQ ID NO: 25) (listed as DNA, chemistry not fully specified; listed as Homo sapiens)”, the “success rate of transfection (LIR2 knockout)” value with LIR2 gene is given as 10%.

In the case of “g9 gRNA: gRNA targeting hLIR2, GAGTCACAGGTGGCATTTGGCGG (SEQ ID NO: 24) (listed as DNA, chemistry not fully specified; listed as Homo sapiens)”, the “success rate of transfection (LIR2 knockout)” value with LIR2 gene was determined as 11%.

In the case of “g7 gRNA: gRNA targeting hCTLA4, CACTCACCTTTGCAGAAGACAGG (SEQ ID NO: 26) (listed as DNA, chemistry not fully specified; listed as Homo sapiens)”, the “success rate of transfection (CTLA4 knockout)” value in the data set on CTLA4 gene is 32%.

B1: TRAIL variant: TRAIL variant of WO 2009/077857, wildtype TRAIL gene containing the D269H/E195R mutation (protein)
chain: MAMMEVQGGPSLGQTCVLIVIFTVLLQSLCVAVTYVYFTNELKQMQDKYSKSGIACFLKEDDSYWDPNDEESMNSPCWQVKWQLRQLVRKMILRTSEETISTVQEKQQNISPLVRERGPQRVAAHITGTRGRSNTLSSPNSKNEKALGRKINSWESSRSGHSFLSNLHLRNGELVIHEKGFYYIYSQTYFRFQERIKENTKNDKQMVQYIYKYTSYPDPILLMKSARNSCWSKDAEYGLYSIYQGGIFELKENDRIFVSVTNEHLIDMHHEASFFGAFLVG
For B1, the “affinity for both decoy receptors (DcR1 and DcR2)” value in data set [2] is reported as “reducing”. For the same molecule, in the data set with DR5 [3], the “affinity of the TRAIL variant for DR5” value is on record as “significantly increases”.
